Measured values published in the NIST ThermoML archive (doi:10.1016/j.jct.2019.07.007).
± gives the expanded uncertainty stated by the source.

Assay: wn = mass fraction of the nth substance listed
Settings: 101 kPa, Liquid, Concentric cylinders viscometry

For `CC(O)CN(C)C` (centres undefined) [1-(dimethylamino)-2-propanol] + O, the viscosity (303.2 K, w1 = 0.3) was 3.1 ± 0.25 mPa·s, the viscosity (303.2 K, w1 = 0.4) was 4.56 ± 0.28 mPa·s and the viscosity (303.2 K, w1 = 0.5) was 6.01 ± 0.25 mPa·s. For the same molecule, the viscosity (313.2 K, w1 = 0.3) was 2.18 ± 0.22 mPa·s, the viscosity (313.2 K, w1 = 0.4) was 3.08 ± 0.22 mPa·s and the viscosity (313.2 K, w1 = 0.5) was 3.96 ± 0.24 mPa·s. It also gave a viscosity (323.2 K, w1 = 0.3) of 1.66 ± 0.21 mPa·s, a viscosity (323.2 K, w1 = 0.4) of 2.19 ± 0.2 mPa·s and a viscosity (323.2 K, w1 = 0.5) of 2.79 ± 0.21 mPa·s.
